As usually defined, the melting point is the temperature of the solid-liquid transition.

This note sets out measurements from US10045968B2, “Bicyclic compound, production and use thereof” (TOBIRA THERAPEUTICS, INC., priority 2001, dated 2018).

T1 sequence (P51681 whole entry): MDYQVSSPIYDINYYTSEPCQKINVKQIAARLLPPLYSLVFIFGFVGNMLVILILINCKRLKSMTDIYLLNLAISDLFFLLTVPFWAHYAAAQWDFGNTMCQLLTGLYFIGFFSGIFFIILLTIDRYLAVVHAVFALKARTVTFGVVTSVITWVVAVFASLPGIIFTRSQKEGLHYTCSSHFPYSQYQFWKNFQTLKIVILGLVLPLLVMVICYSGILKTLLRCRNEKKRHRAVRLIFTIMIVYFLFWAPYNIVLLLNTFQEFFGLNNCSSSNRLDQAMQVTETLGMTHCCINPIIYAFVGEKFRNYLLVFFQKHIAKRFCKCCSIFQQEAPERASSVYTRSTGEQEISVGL

One series concerns the target T1, human CCR5 (Homo sapiens, UniProt P51681).
T1 construct: expressed in transfected cells; host or cells: CHO-K1 cells, stably transfected with pCKR5 (pcDNA3.1 backbone), Geneticin-selected
In words: Inhibition of [125I]-RANTES binding to CCR5/CHO cells (CCR5 antagonist activity). The following applies: 40 min, test compound 1 μM, 100 pM [125I]-RANTES as ligand, room temperature, read-out: Binding Inhibitory Ratio (%). As for the experimental part:
(1) Cloning of Human CCR5 Chemokine Receptor Cloning of CCR5 gene was conducted from human spleen cDNA by PCR method. Using cDNA (0.5 ng) from spleen (Toyobo, QUICK-Clone cDNA) as a genetic template, primer sets prepared by referring to CCR5 gene nucleotide sequence described by Samson et al. (Biochemistry 35 (11), 3362-3367 (1996), i.e., (2) Preparation of Expression Plasmid of Human CCR5 […] The DNA fragments and an expression plasmid for animal cells pcDN A3.1 (Funakoshi), which was previously digested by XbaI and BamHI, were mixed and ligated by DNA Ligation Kit Ver. 2 (Takara Shuzo). Transformation of E. coli JM109 competent cells (Takara Shuzo) gave plasmid pCKR5. (3) Introduction of the Human CCR5 Expression Plasmid into CHO-K1 Cells and Expression Thereof […] The cells were washed with PBS (Lifetech Oriental), centrifuged (1000 rpm, 5 minutes), and resuspended in PBS. The DNA was introduced into the cells using Gene Pulser (BioRad) according to the following conditions. […] The cells were diluted to a concentration of 10^4 cells/ml, and inoculated in 96 well plate (Becton Dickinson), to obtain Geneticin-resistant cells. The Geneticin-resistant cells ware grown in 96 well plate (Becton Dickinson), and CCR5 expressing cells were selected from the resistant cells. Namely, in an assay buffer, (Ham F12 medium containing 0.5% BSA, and 20 mM HEPES (Wako Pure Chemical Ind., pH 7.2)), containing 200 pM [^125I]-RANTES (Amersham) as a ligand, the cells were subjected to binding reaction at room temperature for 40 minutes. The well plate containing the cells was washed with ice-cooled PBS, added with 1M NaOH in an amount of 50 μl/well and stirred. The cells to which the ligand bound specifically, i.e., CCR5/CHO cells, were selected by measurement of radioactivity by γ-counter. (4) Evaluation of Compounds Based on CCR5 Antagonist Activity The CCR5/CHO cells were inoculated in 96 well microplate at a concentration of 5×10^4 cells/well, and grown for 24 hours. After removal of the medium by aspiration, to each well was added an assay buffer containing a test compound (1 μM), and (^125I)/RANTES (Amersham) used as a ligand at a concentration of 100 pM. The mixture was subjected to the reaction at room temperature for 40 minutes. After removal of the assay buffer by aspiration, each well was washed with cooled PBS twice. Then, 200 μl MicroScint 20 (Packerd) was added to each well, and the radioactivity of each well was measured by TopCount (Packard). According to the method above, inhibitory ratios to CCR5 binding of the test compounds were determined.
In the case of `CCCCOCCOc1ccc(-c2ccc3c(c2)C=C(C(=O)Nc2ccc([S+]([O-])Cc4cncn4CCC)cc2)CCCN3c2ccccc2)cc1` (centres unmarked) [Compound 35, 8-[4-(2-butoxyethoxy)phenyl]-1-phenyl-N-[4-[[[1-propylimidazol-5-yl]methyl]sulfinyl]phenyl]-1,2,3,4-tetrahydro-1-benzoazocine-5-carboxamide], the inhibition at 1 µM is 100%.

On to `CCCCOCCOc1ccc(-c2ccc3c(c2)C=C(C(=O)Nc2ccc(SCc4c(C)ncn4CCC)cc2)CCCN3CC(C)C)cc1` [Compound 36, 8-[4-(2-butoxyethoxy)phenyl]-1-isobutyl-N-[4-[[[4-methyl-1-propylimidazol-5-yl]methyl]sulfanyl]phenyl]-1,2,3,4-tetrahydro-1-benzoazocine-5-carboxamide], for which the inhibition at 1 µM turned out to be 97%. The same measure, in the same setting: the figure for `CCCCOCCOc1ccc(-c2ccc3c(c2)C=C(C(=O)Nc2ccc([S+]([O-])Cc4c(C)ncn4CCC)cc2)CCCN3CC(C)C)cc1` (centres unmarked) [Compound 37, 8-[4-(2-butoxyethoxy)phenyl]-1-isobutyl-N-[4-[[[4-methyl-1-propylimidazol-5-yl]methyl]sulfinyl]phenyl]-1,2,3,4-tetrahydro-1-benzoazocine-5-carboxamide] is 100%; for `CCCCOCCOc1ccc(-c2ccc3c(c2)C=C(C(=O)Nc2ccc(SCc4cncn4CCC)c(C)c2)CCCN3CC(C)C)cc1` [Compound 38, 8-[4-(2-butoxyethoxy)phenyl]-1-isobutyl-N-[3-methyl-4-[[[1-propylimidazol-5-yl]methyl]sulfanyl]phenyl]-1,2,3,4-tetrahydro-1-benzoazocine-5-carboxamide] it is 94%; for `CCCCOCCOc1ccc(-c2ccc3c(c2)C=C(C(=O)Nc2ccc([S+]([O-])Cc4cncn4CCC)c(C)c2)CCCN3CC(C)C)cc1` (centres unmarked) [Compound 39, 8-[4-(2-butoxyethoxy)phenyl]-1-isobutyl-N-[3-methyl-4-[[[1-propylimidazol-5-yl]methyl]sulfinyl]phenyl]-1,2,3,4-tetrahydro-1-benzoazocine-5-carboxamide] it is 99%. On the same count and under the same terms, the figure for `CCCCOCCOc1ccc(-c2ccc3c(c2)C=C(C(=O)Nc2ccc(CN(C)C4CCOCC4)cc2)CCCN3CC(C)C)cc1` [Compound 42, 8-(4-(2-butoxyethoxy)phenyl)-1-isobutyl-N-(4-((methyl(tetrahydro-2H-pyran-4-yl)amino)methyl)phenyl)-1,2,3,4-tetrahydro-1-benzoazocine-5-carboxamide] is 90%. Still for that read-out and setting: the figure for `CCCCOCCOc1ccc(-c2ccc3c(c2)C=C(C(=O)Nc2ccc(SCc4nncn4CCC)cc2)CCCN3CC(C)C)cc1` [Compound 46, 8-[4-(2-butoxyethoxy)phenyl]-1-isobutyl-N-[4-[[(4-propyl-4H-1,2,4-triazol-3-yl)methyl]thio]phenyl]-1,2,3,4-tetrahydro-1-benzazocine-5-carboxamide] is 99%; for `CCCCOCCOc1ccc(-c2ccc3c(c2)C=C(C(=O)Nc2ccc([S+]([O-])Cc4nncn4CCC)cc2)CCCN3CCC)cc1` (centres unmarked) [Compound 50, 8-[4-(2-butoxyethoxy)phenyl]-1-propyl-N-[4-[[(4-propyl-4H-1,2,4-triazol-3-yl)methyl]sulfinyl]phenyl]-1,2,3,4-tetrahydro-1-benzazocine-5-carboxamide] it is 93%.

The same series, now with this note: test compound 1 μM, 100 pM [125I]-RANTES as ligand, room temperature, 40 minutes.
Consider `CCCOCCOc1ccc(-c2ccc3c(c2)C=C(C(=O)Nc2ccc([S@@+]([O-])Cc4cncn4CCC)cc2)CCCN3CCC)cc1.CS(=O)(=O)O` [Compound 45, (S)-(−)-8-[4-(2-propoxyethoxy)phenyl]-1-propyl-N-[4-[[(1-propyl-1H-imidazol-5-yl)methyl]sulfinyl]phenyl]-1,2,3,4-tetrahydro-1-benzoazocine-5-carboxamide/methanesulfonate], for which the “Binding Inhibitory Ratio (%)” value was determined as 96%.

Test system in another series: not given
Experiment: not given
Conditions: not given
In turn, `CCCCOCCOc1ccc(-c2ccc3c(c2)C=C(C(=O)Nc2ccc(SCc4nccn4CCCC(=O)OCC)cc2)CCCN3CC(C)C)cc1` [Compound 33, ethyl 4-(2-(((4-(((8-(4-(2-butoxyethoxy)phenyl)-1-isobutyl-1,2,3,4-tetrahydro-1-benzoazocine-5-yl)carbonyl)amino)phenyl)sulfanyl)-methyl)imidazol-1-yl)butanoate] registered a melting point of 130 to 131 °C.

The compound `CCCCOCCOc1ccc(-c2ccc3c(c2)C=C(C(=O)Nc2ccc(SCc4nncn4CCC)cc2)CCCN3CC(C)C)cc1` [Compound 46, 8-[4-(2-butoxyethoxy)phenyl]-1-isobutyl-N-[4-[[(4-propyl-4H-1,2,4-triazol-3-yl)methyl]thio]phenyl]-1,2,3,4-tetrahydro-1-benzazocine-5-carboxamide] came in with a melting point of 122 to 126 °C. Still for that read-out and setting: the figure for `CCCCOCCOc1ccc(-c2ccc3c(c2)C=C(C(=O)Nc2ccc([S+]([O-])Cc4nncn4CCC)cc2)CCCN3CC(C)C)cc1` (centres unmarked) [Compound 47, 8-[4-(2-butoxyethoxy)phenyl]-1-isobutyl-N-[4-[[(4-propyl-4H-1,2,4-triazol-3-yl)methyl]sulfinyl]phenyl]-1,2,3,4-tetrahydro-1-benzazocin-5-carboxamide] is 105 to 110 °C; for `CCCCOCCOc1ccc(-c2ccc3c(c2)C=C(C(=O)Nc2ccc([S+]([O-])Cc4nncn4CCC)cc2)CCCN3CCC)cc1` (centres unmarked) [Compound 51, 8-[4-(2-butoxyethoxy)phenyl]-1-propyl-N-[4-[[(4-propyl-4H-1,2,4-triazol-3-yl)methyl]sulfinyl]phenyl]-1,2,3,4-tetrahydro-1-benzazocine-5-carboxamide] it is 167 to 170 °C; for `CCCCOCCOc1ccc(-c2ccc3c(c2)C=C(C(=O)Nc2ccc([S+]([O-])Cc4nccn4CCCC(=O)OCC)cc2)CCCN3CC(C)C)cc1` (centres unmarked) [Compound 54, ethyl 4-(2-(((4-(((8-(4-(2-butoxyethoxy)phenyl)-1-isobutyl-1,2,3,4-tetrahydro-1-benzazocine-5-yl)carbonyl)amino)phenyl)sulfinyl)methyl)imidazol-1-yl)butanoate] it is 133.5 to 134.5 °C.
